Measurements as given in US12559506B2, “Indazole based compounds and associated methods of use” (Arvinas Operations, Inc., priority 2021, dated 2026).
Read-outs that look alike come from different tables or passages of the source.

Columns and labels:
G2019S LRRK2 = biological target: T1, G2019S LRRK2 (Homo sapiens, UniProt Q5S007, G2019S); assay: LRRK2 degradation assay, HiBit-tagged G2019S LRRK2 expressed from plasmid in HEK293 cells (Nano-Glo Dual-Luciferase); format: cell-based; conditions: 24 hours
T1 construct: expressed in transfected cells; host or cells: HEK293 (ATCC CRL-1573), transient transfection, mammalian expression vector with ubiquitin promoter
How it was run: (§1)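 HEK293 cells co-transfected with C-terminal HiBiT-tagged LRRK2 (WT or G2019S, ubiquitin promoter) and firefly luciferase, then dosed 24 h at 37 °C. HiBiT/firefly ratio normalized to DMSO median; DC50 and Dmax from per-plate curve fits, six replicates over two days.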

wildtype LRRK2 = biological target: T2, wildtype LRRK2 (Homo sapiens, UniProt Q5S007); assay: LRRK2 degradation assay, HiBit-tagged wildtype LRRK2 expressed from plasmid in HEK293 cells (Nano-Glo Dual-Luciferase); format: cell-based; conditions: 24 hours; for Dmax: read-out: **WT Dmax (%); for DC50: read-out: *WT DC50
T2 construct: expressed in transfected cells; host or cells: HEK293 (ATCC CRL-1573), transient transfection, mammalian expression vector with ubiquitin promoter
How it was run: as §1

[1] = HiBit-tagged G2019S LRRK2 in HEK293 cells
[2] = HiBit-tagged wildtype LRRK2 in HEK293 cells
[3] = HiBit-tagged G2019S LRRK2, HEK293 cells
[4] = HiBit-tagged wildtype LRRK2, HEK293 cells

T1 sequence (Q5S007 whole entry G2019S): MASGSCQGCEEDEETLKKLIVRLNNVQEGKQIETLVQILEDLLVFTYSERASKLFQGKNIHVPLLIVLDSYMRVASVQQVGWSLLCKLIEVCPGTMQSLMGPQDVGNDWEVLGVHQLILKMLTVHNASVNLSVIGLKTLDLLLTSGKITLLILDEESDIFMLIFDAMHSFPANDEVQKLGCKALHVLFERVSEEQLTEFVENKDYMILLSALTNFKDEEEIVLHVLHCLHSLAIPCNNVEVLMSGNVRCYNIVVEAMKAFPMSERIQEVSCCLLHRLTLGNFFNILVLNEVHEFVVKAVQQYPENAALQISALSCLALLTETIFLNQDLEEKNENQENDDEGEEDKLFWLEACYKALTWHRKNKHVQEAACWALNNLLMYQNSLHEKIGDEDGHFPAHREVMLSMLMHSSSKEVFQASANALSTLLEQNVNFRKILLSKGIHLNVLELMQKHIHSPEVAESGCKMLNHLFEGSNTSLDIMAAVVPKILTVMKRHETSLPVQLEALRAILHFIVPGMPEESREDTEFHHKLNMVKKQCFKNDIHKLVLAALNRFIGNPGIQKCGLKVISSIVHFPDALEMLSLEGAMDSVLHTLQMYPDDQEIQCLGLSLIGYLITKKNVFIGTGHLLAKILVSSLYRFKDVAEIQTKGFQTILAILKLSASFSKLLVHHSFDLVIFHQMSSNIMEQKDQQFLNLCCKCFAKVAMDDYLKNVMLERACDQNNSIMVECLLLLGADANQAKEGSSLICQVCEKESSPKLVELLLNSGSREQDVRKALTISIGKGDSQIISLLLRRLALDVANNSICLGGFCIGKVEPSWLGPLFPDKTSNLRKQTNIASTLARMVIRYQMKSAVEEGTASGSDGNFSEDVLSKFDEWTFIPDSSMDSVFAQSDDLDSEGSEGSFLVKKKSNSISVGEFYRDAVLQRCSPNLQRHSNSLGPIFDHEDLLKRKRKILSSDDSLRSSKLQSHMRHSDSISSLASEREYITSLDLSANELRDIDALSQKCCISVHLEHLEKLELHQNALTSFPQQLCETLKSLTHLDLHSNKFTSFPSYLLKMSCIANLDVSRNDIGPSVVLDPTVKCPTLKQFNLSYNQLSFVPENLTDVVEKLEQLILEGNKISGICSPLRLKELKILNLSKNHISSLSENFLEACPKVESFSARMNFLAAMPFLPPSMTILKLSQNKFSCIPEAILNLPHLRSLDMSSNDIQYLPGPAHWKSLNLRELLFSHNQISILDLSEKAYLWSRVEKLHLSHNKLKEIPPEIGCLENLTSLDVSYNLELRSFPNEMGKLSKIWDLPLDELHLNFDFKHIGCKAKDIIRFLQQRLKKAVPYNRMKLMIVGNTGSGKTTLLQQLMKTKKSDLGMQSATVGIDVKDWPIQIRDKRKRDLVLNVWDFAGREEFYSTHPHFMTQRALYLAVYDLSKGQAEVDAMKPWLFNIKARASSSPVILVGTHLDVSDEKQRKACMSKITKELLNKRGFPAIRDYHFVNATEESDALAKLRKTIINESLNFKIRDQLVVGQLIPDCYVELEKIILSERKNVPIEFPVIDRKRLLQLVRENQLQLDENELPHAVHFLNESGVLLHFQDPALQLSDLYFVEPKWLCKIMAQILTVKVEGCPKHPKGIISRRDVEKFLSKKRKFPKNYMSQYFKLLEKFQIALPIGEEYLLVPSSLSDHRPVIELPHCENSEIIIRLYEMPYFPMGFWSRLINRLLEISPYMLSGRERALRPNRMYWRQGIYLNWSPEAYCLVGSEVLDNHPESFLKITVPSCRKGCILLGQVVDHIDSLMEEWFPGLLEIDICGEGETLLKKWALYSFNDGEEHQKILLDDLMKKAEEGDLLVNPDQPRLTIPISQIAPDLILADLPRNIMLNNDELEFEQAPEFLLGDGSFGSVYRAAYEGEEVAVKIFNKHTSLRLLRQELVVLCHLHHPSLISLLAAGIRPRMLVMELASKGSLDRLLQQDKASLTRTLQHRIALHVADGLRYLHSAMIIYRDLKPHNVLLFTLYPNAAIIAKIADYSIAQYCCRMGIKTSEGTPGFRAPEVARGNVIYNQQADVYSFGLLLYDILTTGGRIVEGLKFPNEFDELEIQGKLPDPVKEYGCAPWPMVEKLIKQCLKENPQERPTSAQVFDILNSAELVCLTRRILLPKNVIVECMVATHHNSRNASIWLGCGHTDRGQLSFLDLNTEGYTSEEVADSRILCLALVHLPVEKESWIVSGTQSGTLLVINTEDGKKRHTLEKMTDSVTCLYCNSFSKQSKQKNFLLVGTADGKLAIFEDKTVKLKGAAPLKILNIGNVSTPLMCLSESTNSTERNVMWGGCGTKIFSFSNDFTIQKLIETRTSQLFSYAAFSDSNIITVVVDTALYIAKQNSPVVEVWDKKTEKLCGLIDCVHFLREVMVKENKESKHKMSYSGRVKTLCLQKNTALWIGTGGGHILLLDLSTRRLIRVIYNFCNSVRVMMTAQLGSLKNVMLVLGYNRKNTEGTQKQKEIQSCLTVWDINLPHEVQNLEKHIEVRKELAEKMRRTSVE
T2 sequence (Q5S007 whole entry): as the sequence (Q5S007 whole entry G2019S) above, with S2019G counted along it

Row | Compound | DC50 (G2019S LRRK2; [1]) [nM] | Dmax (G2019S LRRK2; [1]) [%] | Dmax (wildtype LRRK2; [2]) [%] | DC50 (wildtype LRRK2; [2]) [nM] | DC50 (G2019S LRRK2; [3]) [nM] | Dmax (G2019S LRRK2; [3]) [%] | Dmax (wildtype LRRK2; [4]) [%] | DC50 (wildtype LRRK2; [4]) [nM]
1 | CC1(Oc2ccc3n[nH]c(-c4cc(N5CCN(CC6(F)CCN(C(=O)C7CCN(c8ccc9c(c8)C(=O)N(C8CCC(=O)NC8=O)C9=O)CC7)CC6)CC5)ncn4)c3c2)CC1 (centres unmarked) [Compound 96, 2-(2,6-dioxo-3-piperidyl)-5-[4-[4-fluoro-4-[[4-[6-[5-(1-methylcyclopropoxy)-1H-indazol-3-yl]pyrimidin-4-yl]piperazin-1-yl]methyl]piperidine-1-carbonyl]-1-piperidyl]isoindoline-1,3-dione] | < 10 | 50 to 70 | 50 to 70 | < 10 | – | – | – | –
2 | CC1(Oc2ccc3[nH]nc(-c4ccnc(N5CCC(O[C@H]6C[C@H](OC7CCN(c8ccc9c(c8)C(=O)N(C8CCC(=O)NC8=O)C9=O)CC7)C6)CC5)c4)c3c2)CC1 (some centres unmarked) [Compound 127, 2-(2,6-dioxo-3-piperidyl)-5-[4-[3-[[1-[4-[5-(1-methylcyclopropoxy)-1H-indazol-3-yl]-2-pyridyl]-4-piperidyl]oxy]cyclobutoxy]-1-piperidyl]isoindoline-1,3-dione] | 10 to 50 | < 50 | < 50 | 10 to 50 | – | – | – | –
3 | CC1(Oc2ccc3n[nH]c(-c4cc(N5CCC(CN6CCN(CC7(F)CN(c8ccc9c(c8)C(=O)N(C8CCC(=O)NC8=O)C9=O)C7)CC6)CC5)ncn4)c3c2)CC1 (centres unmarked) [Compound 134, 2-(2,6-dioxo-3-piperidyl)-5-[3-fluoro-3-[[4-[[1-[6-[5-(1-methylcyclopropoxy)-2H-indazol-3-yl]pyrimidin-4-yl]-4-piperidyl]methyl]piperazin-1-yl]methyl]azetidin-1-yl]isoindoline-1,3-dione] | < 10 | 50 to 70 | 50 to 70 | < 10 | – | – | – | –
4 | CC1(Oc2ccc3[nH]nc(-c4cc(N5CCN(CC6(F)CCN(CC7CCN(c8ccc9c(c8)CN(C8CCC(=O)NC8=O)C9=O)CC7)CC6)CC5)ncn4)c3c2)CC1 (centres unmarked) [Compound 110, 3-[5-[4-[[4-fluoro-4-[[4-[6-[5-(1-methylcyclopropoxy)-1H-indazol-3-yl]pyrimidin-4-yl]piperazin-1-yl]methyl]-1-piperidyl]methyl]-1-piperidyl]-1-oxo-isoindolin-2-yl]piperidine-2,6-dione] | < 10 | 50 to 70 | 50 to 70 | < 10 | – | – | – | –
5 | CC1(Oc2ccc3[nH]nc(-c4cc(N5CCN(Cc6cccc(CN7CCN(c8ccc9c(c8)C(=O)N(C8CCC(=O)NC8=O)C9=O)CC7)c6)CC5)ncn4)c3c2)CC1 (centres unmarked) [Compound 170, 2-(2,6-dioxo-3-piperidyl)-5-[4-[[3-[[4-[6-[5-(1-methylcyclopropoxy)-2H-indazol-3-yl]pyrimidin-4-yl]piperazin-1-yl]methyl]phenyl]methyl]piperazin-1-yl]isoindoline-1,3-dione] | – | – | – | – | ≥ 100 | – | – | ≥ 100
6 | CC1(Oc2ccc3[nH]nc(-c4ccnc(N5CC6(CN(CC7CCN(CC8CCN(c9ccc%10c(c9)C(=O)N(C9CCC(=O)NC9=O)C%10=O)CC8)CC7)C6)C5)c4)c3c2)CC1 (centres unmarked) [Compound 161, 2-(2,6-dioxo-3-piperidyl)-5-[4-[[4-[[2-[4-[5-(1-methylcyclopropoxy)-1H-indazol-3-yl]-2-pyridyl]-2,6-diazaspiro[3.3]heptan-6-yl]methyl]-1-piperidyl]methyl]-1-piperidyl]isoindoline-1,3-dione] | – | – | – | – | 10 to 50 | 50 to 70 | 50 to 70 | 10 to 50
7 | CC1(Oc2ccc3n[nH]c(-c4cc(N5CCN(Cc6ccc(CN7CCN(c8ccc9c(c8)C(=O)N(C8CCC(=O)NC8=O)C9=O)CC7)nn6)CC5)ncn4)c3c2)CC1 (centres unmarked) [Compound 172, 2-(2,6-dioxo-3-piperidyl)-5-[4-[[6-[[4-[6-[5-(1-methylcyclopropoxy)-2H-indazol-3-yl]pyrimidin-4-yl]piperazin-1-yl]methyl]pyridazin-3-yl]methyl]piperazin-1-yl]isoindoline-1,3-dione] | – | – | – | – | < 10 | 50 to 70 | 50 to 70 | < 10

Now from value to molecule:

Row | DC50 (G2019S LRRK2; [1]) [nM] | Dmax (G2019S LRRK2; [1]) [%] | Dmax (wildtype LRRK2; [2]) [%] | DC50 (wildtype LRRK2; [2]) [nM] | DC50 (G2019S LRRK2; [3]) [nM] | Dmax (G2019S LRRK2; [3]) [%] | Dmax (wildtype LRRK2; [4]) [%] | DC50 (wildtype LRRK2; [4]) [nM] | Compound
8 | < 10 | ≥ 70 | ≥ 70 | < 10 | – | – | – | – | CC1(Oc2ccc3[nH]nc(-c4cc(N5CCC(CN=S6(=O)CCN(CC7CCN(c8ccc9c(c8)C(=O)N(C8CCC(=O)NC8=O)C9=O)CC7)CC6)CC5)ncn4)c3c2)CC1 (centres unmarked) [Compound 63, 2-(2,6-dioxo-3-piperidyl)-5-[4-[[1-[[1-[6-[5-(1-methylcyclopropoxy)-1H-indazol-3-yl]pyrimidin-4-yl]-4-piperidyl]methylimino]-1-oxo-1,4-thiazinan-4-yl]methyl]-1-piperidyl]isoindoline-1,3-dione]
9 | – | – | – | – | < 10 | < 50 | < 50 | < 10 | CC1(Oc2ccc3[nH]nc(-c4cc(N5CCO[C@H](CN6CCN(CC7CCN(c8ccc9c(c8)C(=O)N(C8CCC(=O)NC8=O)C9=O)CC7)CC6)C5)ncn4)c3c2)CC1 (stereo partly drawn) [Compound 152, 2-(2,6-dioxo-3-piperidyl)-5-[4-[[4-[[(2R)-4-[6-[5-(1-methylcyclopropoxy)-1H-indazol-3-yl]pyrimidin-4-yl]morpholin-2-yl]methyl]piperazin-1-yl]methyl]-1-piperidyl]isoindoline-1,3-dione]
10 | – | – | – | – | < 10 | ≥ 70 | 50 to 70 | < 10 | CC1(Oc2ccc3[nH]nc(-c4cc(N5CCN(C[C@H]6CN(CC7CCN(c8ccc9c(c8)C(=O)N(C8CCC(=O)NC8=O)C9=O)CC7)CCO6)CC5)ncn4)c3c2)CC1 (stereo partly drawn) [Compound 157, 2-(2,6-dioxopiperidin-3-yl)-5-(4-{[(2S)-2-[(4-{6-[5-(1-methylcyclopropoxy)-1H-indazol-3-yl]pyrimidin-4-yl}piperazin-1-yl)methyl]morpholin-4-yl]methyl}piperidin-1-yl)-2,3-dihydro-1H-isoindole-1,3-dione]
11 | < 10 | ≥ 70 | ≥ 70 | < 10 | – | – | – | – | C[C@H]1CN(c2cc(-c3n[nH]c4ccc(OC5(C)CC5)cc34)ncn2)CCN1CCN1CCN(CC2CCN(c3ccc4c(c3)C(=O)N(C3CCC(=O)NC3=O)C4=O)CC2)CC1 (stereo partly drawn) [Compound 55, 2-(2,6-dioxopiperidin-3-yl)-5-{4-[(4-{2-[(2S)-2-methyl-4-{6-[5-(1-methylcyclopropoxy)-1H-indazol-3-yl]pyrimidin-4-yl}piperazin-1-yl]ethyl}piperazin-1-yl)methyl]piperidin-1-yl}-2,3-dihydro-1H-isoindole-1,3-dione]
12 | < 10 | < 50 | < 50 | < 10 | – | – | – | – | CC1(Oc2ccc3[nH]nc(-c4cc(N5CCC(O[C@H]6CCN(CC7CCN(c8ccc9c(c8)C(=O)N(C8CCC(=O)NC8=O)C9=O)CC7)C6)CC5)ncn4)c3c2)CC1 (stereo partly drawn) [Compound 117, 2-(2,6-dioxopiperidin-3-yl)-5-(4-{[(3S)-3-[(1-{6-[5-(1-methylcyclopropoxy)-1H-indazol-3-yl]pyrimidin-4-yl}piperidin-4-yl)oxy]pyrrolidin-1-yl]methyl}piperidin-1-yl)-2,3-dihydro-1H-isoindole-1,3-dione]
13 | < 10 | 50 to 70 | 50 to 70 | < 10 | – | – | – | – | CC1(Oc2ccc3[nH]nc(-c4ccnc(N5CC(CN6CCN(CC7CCN(c8ccc9c(c8)C(=O)N(C8CCC(=O)NC8=O)C9=O)CC7)CC6)C5)c4)c3c2)CC1 (centres unmarked) [Compound 128, 2-(2,6-dioxopiperidin-3-yl)-5-[4-({4-[(1-{4-[5-(1-methylcyclopropoxy)-1H-indazol-3-yl]pyridin-2-yl}azetidin-3-yl)methyl]piperazin-1-yl}methyl)piperidin-1-yl]-2,3-dihydro-1H-isoindole-1,3-dione]
